Source: US8926966B1 (Regents of the University of California, priority 1990, dated 2015)

How the values were obtained:
NOD mice [1] = assay: Insulitis score after tolerization of NOD mice; assay type: in vivo, mouse; details: examined at 12 weeks
[2] = test system: IDDM associated autoantibodies in sera; assay: ELISA of sera on plate-bound human GAD65 peptides; assay type: binding; details: for number of IDDM (at risk, pre-IDDM, at onset) patients positive (X) for the peptide (unlabelled sum line): IDDM sera of Table 11
Procedure, shortened: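 Blinded, coded sera (1/300) bound 1 h at 37 °C to wells coated overnight at 4 °C with peptides (20 ug/ml, pH 9.6), BSA-blocked. Detection with HRP-goat anti-human IgG (1/600), read at 410 nm; positive when sample/negative-control OD410 ≥3.0.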

spleen cells of NOD mice [3] = assay: Spleen cell proliferation (recall response to antigens) after tolerization of NOD mice; assay type: cell-based, mouse; details: tested at 12 weeks; for Spleen Cell Proliferation (SI ± SEM) GAD: recall antigen GAD; for Spleen Cell Proliferation (SI ± SEM) GAD Peptides #17: recall antigen GAD peptide #17; for Spleen Cell Proliferation (SI ± SEM) GAD Peptides #34: recall antigen GAD peptide #34; for Spleen Cell Proliferation (SI ± SEM) GAD Peptides #35: recall antigen GAD peptide #35; for Spleen Cell Proliferation (SI ± SEM) hsp Peptide: recall antigen hsp peptide; for Spleen Cell Proliferation (SI ± SEM) β-Gal: recall antigen β-Gal
Description: Incorporation of label was measured by liquid scintillation counting.

spleen cells of NOD mice [4] = assay: Proliferative responses of NOD spleen cells to GAD peptides; assay type: cell-based, mouse; details: peptide 7 μM, 5-day culture
Description: The fine specificity of the anti-GAD T-cell response was mapped using a set of 38 peptides (numbered successively from the N-terminus) that were 20-23 amino acids (aa) long and span the entire GAD65 (Bu, et al., Proc. Natl. Acad. Sci., 89:2115-2119, 1992) sequence with 5aa overlaps (FIG. 10).
Peptides were present in cultures at 7 μM and the label was added during the last 16 hours of a 5-day culture. The peptides were synthesized using standard Fmoc chemistry and purified by reverse phase HPLC (Advanced Chemtech). The sequence of stimulatory peptides are shown below in Table 9.

[5] = test system: IDDM autoantibodies in sera of human patients; assay: Autoantibody reactivity with ^35S labeled GAD65 segments (immunoprecipitation, SDS-PAGE); assay type: binding; details: IDDM patient sera of Table 10
Source text: Portions of human GAD65 cDNA were amplified by the polymerase chain reaction (PCR; Saiki, et al., Science, 239:487, 1988) to produce DNA segments encoding three polypeptide segments: amino acid residues 1-224 (segment A); 224-398 (segment B); and 398-585 (segment C). Each construct also contained a T7 promoter, a consensus sequence for the initiation of translation and an initiating methionine codon (Korak, M., J. Cell Biol., 108:229, 1989). Each PCR product was then trascribed in vitro with T7 RNA polymerase and translated in vitro in a rabbit reticulocyte cell-free system in the presence of ^35S-methionine, using conditions recommended by the supplier (Amersham Corp., Arlington Heights, Ill.). Each test serum (30 μl) was incubated with the resulting ^35S labeled-polypeptides. The bound peptides were isolated with PAS and analyzed by SDS-PAGE in 12% polyaacrylamide and autoradiography.

NOD mice [6] = assay: GAD immunization of 8 week old NOD mice, IDDM onset; assay type: in vivo, mouse; details: 25 ug i.p. in IFA at 8 weeks, again every 6 weeks
Source text: Breeder mice were purchased from Taconic Farms and housed under specific pathogen-free conditions. Only female NOD mice were used in this study. […] Insulitis is generally observed beginning at 4 weeks of age. […] The incidence of IDDM in female mice is 70-90% by one year of age.
Urine glucose levels were monitored twice weekly. After observing above normal glucose in urea, blood glucose levels were monitored twice weekly.

[7] = test system: autoantibodies to GAD in patient sera; assay: Immunoprecipitation of ^35S-GAD65 / ^35S-GAD67 by sera drawn prior to IDDM onset; assay type: binding, human; design: key to band intensity of immunoprecipitated ^35S-GAD: 1 = lowest; 2 = medium; 3 = highest band intensities
Description: Islet cells were extracted as previously described by Atkinson, et al. (Lancet, 335:1357-1360, 1990) with the following modifications. […] The protein A Sepharose CL-4B was then boiled in Laemmli sample buffer (Laemmli, Nature, 227:680-685, 1970), and the samples were subjected to SDS-PAGE and fluororadiography (Kodak, X-omat AR5) using Enhance (New England Nuclear). Alternatively, the autoradiographs were analyzed by a BETAGEN (Boston, Mass.) analyzer. Both 64KA positive and negative sera were used in each assay, to serve as interassay controls. All fluororadiographs were analyzed and rated as positive or negative after comparison with the known interassay controls. […] A similar rating procedure was employed for the intensity of bands corresponding to immunoprecipitated ^35S-GAD65 and ^35S-GAD67.
Rat GAD65 and GAD67 cDNAs were subcloned into a bacterial expression system as previously described. Labeling of ^35S-GADs was completed by pulsing IPTG induced bacterium (growing in Minimal Media) for 15 minutes with TRAN ^35S-label (ICN). Cultures were then spun down and resuspended and sonicated in 1 ml of homogenizing buffer (1 mM phenylmethylsulfonyl fluoride (PMSF), 1 mM 2-aminoethylisothiouronium Bromide (AET) and 60 mM potassium phosphate, pH 7.1). After sonication, cell debris was removed by centrifugation and protein concentration was measured (Bradford, Anal. Biochem., 72:248, […]) in the supernatant (supernatant was stored in aliquots at −70° C.).

[8] = Table 8B: neonatal i.p. with IFA
[9] = Table 8C: i.v. at three weeks of age

Molecule: EEILMHCQTTLKYAIKTGHP [Peptide 11]
- Insultis Score (NOD mice [1]; Table 8B: neonatal female NOD mice, i.p. with IFA, scale 0-4): ≈2.5
- immunoreactivity of serum with GAD65 peptide ([2]; IDDM At Risk serum 825, 1/300 dilution): X (X = positive for immunoreactivity as defined by 00/background^3.0)
- immunoreactivity of serum with GAD65 peptide ([2]; IDDM At Risk serum L.I., 1/300 dilution): b (b = borderline response (00/background ?2.5-2.9).)
- number of IDDM (at risk, pre-IDDM, at onset) patients positive (X) for the peptide (unlabelled sum line) [2]: 2
- immunoreactivity of serum with GAD65 peptide ([2]; Pre-IDDM serum B.Y. (1), 1/300 dilution): X (X = positive for immunoreactivity as defined by 00/background^3.0)
- immunoreactivity of serum with GAD65 peptide ([2]; Pre-IDDM serum J.B. (1), 1/300 dilution): b (b = borderline response (00/background ?2.5-2.9).)
- immunoreactivity of serum with GAD65 peptide ([2]; Pre-IDDM serum J.B. (2), 1/300 dilution): b (b = borderline response (00/background ?2.5-2.9).)
- immunoreactivity of serum with GAD65 peptide ([2]; Pre-IDDM serum R.S. (1), 1/300 dilution): b (b = borderline response (00/background ?2.5-2.9).)
- immunoreactivity of serum with GAD65 peptide ([2]; Pre-IDDM serum R.S. (2), 1/300 dilution): b (b = borderline response (00/background ?2.5-2.9).)
- Spleen Cell Proliferation (SI ± SEM) GAD (spleen cells of NOD mice [3]; [8]): 21.1 ± 2.2 SI
- Spleen Cell Proliferation (SI ± SEM) GAD Peptides #17 (spleen cells of NOD mice [3]; [8]): 13.7 ± 1.5 SI
- Spleen Cell Proliferation (SI ± SEM) GAD Peptides #34 (spleen cells of NOD mice [3]; [8]): 11.4 ± 1.5 SI
- Spleen Cell Proliferation (SI ± SEM) GAD Peptides #35 (spleen cells of NOD mice [3]; [8]): 11.3 ± 0.7 SI
- Spleen Cell Proliferation (SI ± SEM) hsp Peptide (spleen cells of NOD mice [3]; [8]): 13.3 ± 0.9 SI
- Spleen Cell Proliferation (SI ± SEM) β-Gal (spleen cells of NOD mice [3]; [8]): 1.0 ± 0.1 SI
- Spleen Cell Proliferation (SI ± SEM) GAD (spleen cells of NOD mice [3]; [9]): 12.1 ± 3.5 SI
- Spleen Cell Proliferation (SI ± SEM) GAD Peptides #17 (spleen cells of NOD mice [3]; [9]): 6.9 ± 0.4 SI
- Spleen Cell Proliferation (SI ± SEM) GAD Peptides #34 (spleen cells of NOD mice [3]; [9]): 6.4 ± 1.0 SI
- Spleen Cell Proliferation (SI ± SEM) GAD Peptides #35 (spleen cells of NOD mice [3]; [9]): 6.8 ± 0.3 SI
- Spleen Cell Proliferation (SI ± SEM) hsp Peptide (spleen cells of NOD mice [3]; [9]): 8.7 ± 0.9 SI
- Spleen Cell Proliferation (SI ± SEM) β-Gal (spleen cells of NOD mice [3]; [9]): 1.4 ± 0.4 SI

Molecule: IPPSLRTLEDNEERMSRLSK [Peptide 34]
- immunoreactivity of serum with GAD65 peptide ([2]; IDDM At Onset serum 048, 1/300 dilution): X (X = positive for immunoreactivity as defined by 00/background^3.0)
- immunoreactivity of serum with GAD65 peptide ([2]; IDDM At Onset serum 291, 1/300 dilution): b (b = borderline response (00/background ?2.5-2.9).)
- number of IDDM (at risk, pre-IDDM, at onset) patients positive (X) for the peptide (unlabelled sum line) [2]: 1
- age of NOD mice at first regularly detectable proliferative response (spleen cells of NOD mice [4]): 4 weeks

Molecule: NMYAMMIARFKMFPEVKEKG [Peptide 17]
- age of NOD mice at first regularly detectable proliferative response (spleen cells of NOD mice [4]): 5 weeks

Molecule: SRLSKVAPVIKARMMEYGTT [Peptide 35]
- number of IDDM (at risk, pre-IDDM, at onset) patients positive (X) for the peptide (unlabelled sum line) [2]: 1
- immunoreactivity of serum with GAD65 peptide ([2]; Pre-IDDM serum 723, 1/300 dilution): X (X = positive for immunoreactivity as defined by 00/background^3.0)
- age of NOD mice at first regularly detectable proliferative response (spleen cells of NOD mice [4]): 4 weeks

Molecule: Segment B: human GAD65 amino acid residues 224-398, in vitro translated, ^35S labeled
- patients with antibodies reactive with the segment [5]: 41%

Molecule: β-Gal.: E. coli β-galactosidase, control antigen purified from recombinant bacteria [reference compound]
- mice that developed IDDM by 27 weeks in age (NOD mice [6]): 6/10
- mice remaining disease free at 52 weeks of age (NOD mice [6]; 10 mice per group): 2
- Insultis Score (NOD mice [1]; Table 8A: female NOD mice, i.v. at 3 weeks of age, 50 μg (hsp-p 0.1 μg) in PBS, scale 0-4, mean ± SE): 2.6 ± 0.6
- Spleen Cell Proliferation (SI ± SEM) CPH (spleen cells of NOD mice [3]; Table 8A: i.v. at 3 weeks, recall antigen CPH): 11.5 ± 0.9 SI
- Spleen Cell Proliferation (SI ± SEM) GAD (spleen cells of NOD mice [3]; Table 8A: i.v. at 3 weeks): 15.4 ± 1.8 SI
- Spleen Cell Proliferation (SI ± SEM) GAD Peptides #17 (spleen cells of NOD mice [3]; Table 8A: i.v. at 3 weeks): 5.1 ± 0.6 SI
- Spleen Cell Proliferation (SI ± SEM) GAD Peptides #34 (spleen cells of NOD mice [3]; Table 8A: i.v. at 3 weeks): 5.1 ± 0.6 SI
- Spleen Cell Proliferation (SI ± SEM) GAD Peptides #35 (spleen cells of NOD mice [3]; Table 8A: i.v. at 3 weeks): 4.0 ± 0.2 SI
- Spleen Cell Proliferation (SI ± SEM) hsp Peptide (spleen cells of NOD mice [3]; Table 8A: i.v. at 3 weeks): 6.6 ± 0.5 SI
- Spleen Cell Proliferation (SI ± SEM) β-Gal (spleen cells of NOD mice [3]; Table 8A: i.v. at 3 weeks): 1.1 ± 0.1 SI

B1: GAD67: rat GAD67 expressed in bacteria, ^35S-labeled, in bacterial lysate (protein)
chain: MASSTPSPATSSNAGADPNTTNLRPTTYDTWCGVAHGCTRKLGLKICGFLQRTNSLEEKSRLVSAFRERQASKNLLSCENSDPGARFRRTETDFSNLFAQDLLPAKNGEEQTVQFLLEVVDILLNYVRKTFDRSTKVLDFHHPHQLLEGMEGFNLELSDHPESLEQILVDCRDTLKYGVRTGHPRFFNQLSTGLDIIGLAGEWLTSTANTNMFTYEIAPVFVLMEQITLKKMREIIGWSNKDGDGIFSPGGAISNMYSIMAARYKYFPEVKTKGMAAVPKLVLFTSEHSHYSIKKAGAALGFGTDNVILIKCNERGKIIPADLEAKILDAKQKGFVPLYVNATAGTTVYGAFDPIQEIADICEKYNLWLHVDAAWGGGLLMSRKHRHKLSGIERANSVTWNPHKMMGVLLQCSAILVKEKGILQGCNQMCAGYLFQPDKQYDVSYDTGDKAIQCGRHVDIFKFWLMWKAKGTVGFENQINKCLELAEYLYAKIKNREEFEMVFNGEPEHTNVCFWYIPQSLRGVPDSPERREKLHRVAPKIKALMMESGTTMVGYQPQGDKANFFRMVISNPAATQSDIDFLIEEIERLGQDL
- band intensity of immunoprecipitated ^35S-GAD ([7]; serum of patient eight, drawn 8 months before IDDM onset): 0
- band intensity of immunoprecipitated ^35S-GAD ([7]; serum of patient eleven, drawn 10 months before IDDM onset): 1
- band intensity of immunoprecipitated ^35S-GAD ([7]; serum of patient five, drawn 34 months before IDDM onset): 0
- band intensity of immunoprecipitated ^35S-GAD ([7]; serum of patient nine, drawn 42 months before IDDM onset): 0
- band intensity of immunoprecipitated ^35S-GAD ([7]; serum of patient one, drawn 9 months before IDDM onset): 1
- band intensity of immunoprecipitated ^35S-GAD ([7]; serum of patient seven, drawn 3 months before IDDM onset): 1
- band intensity of immunoprecipitated ^35S-GAD ([7]; serum of patient six, drawn 11 months before IDDM onset): 1
- band intensity of immunoprecipitated ^35S-GAD ([7]; serum of patient ten, drawn 25 months before IDDM onset): 1
- band intensity of immunoprecipitated ^35S-GAD ([7]; serum of patient three, drawn 14 months before IDDM onset): 0
- band intensity of immunoprecipitated ^35S-GAD ([7]; serum of patient twelve, drawn 4 months before IDDM onset): 0
- band intensity of immunoprecipitated ^35S-GAD ([7]; serum of patient two, drawn 6 months before IDDM onset): 2
- band intensity of immunoprecipitated ^35S-GAD ([7]; serum of patient, drawn 66 months before IDDM onset): 0
